What was measured:
Format in all cases: cell-based, human
hiPSC-CM monolayers [1] = experiment: Optical mapping of action potential duration and conduction velocity, monolayers
Experimental: (§1) Each EHS was placed in Tyrode's solution and stained with 10 μM di-4-ANEPPS for 10 min at 37° C. The EHS was rinsed several times in a dish with warm Tyrode's solution, and then immersed in Tyrode's solution containing 10 μM blebbistatin to suppress contraction. The dish was placed on a 37° C. heated stage for the duration of the experiment. At least 5 min after adding blebbistatin, the EHS was stimulated with a point electrode and optically mapped using a CMOS camera (MiCAM Ultima-L, SciMedia). The EHS was paced by 5 ms monophasic rectangular pulses at stepwise increasing rates starting at 0.5 Hz. For some samples, E-4031, chromanol 293B, nifedipine, Bay K 8644, BaCl2, or cromakalim was added for 7 min prior to mapping. Mapping data were analyzed using custom MATLAB scripts (details provided in Supplemental Information). AP durations at 30% and 80% repolarization (APD30 and APD80) were calculated from the optical voltage signal. For drug studies, APD and conduction velocity (CV) measurements at each concentration were plotted as a percentage of APD and CV measured at baseline, with no drug present.
(§2) EHS were stained with 10 μM of the voltage-sensitive dye di-4-ANEPPS (Sigma-Aldrich Corp.) in Tyrode's solution for 10 minutes at 37° C. Afterwards, EHS were rinsed twice with Tyrode's and placed in a 35-mm dish filled with Tyrode's and 10 μM of the contraction inhibitor blebbistatin (Sigma-Aldrich Corp.). This dish was set on a stage heated to 37° C. and allowed to equilibrate for at least 5 minutes. Samples were point paced with at least 30 stimulus pulses at a range of cycle lengths, starting from 2000 ms and decreasing until the they lost capture. EHS were optically mapped during pacing using a 100×100 pixel CMOS camera (MiCAM Ultima-L, SciMedia, Costa Mesa, Calif.).
(§3) During drug studies, recordings at a range of pacing rates were taken at baseline (prior to the addition of drug) before replacing the solution in the dish with Tyrode's supplemented with blebbistatin and the lowest dose of drug studied. The sample was paced at the same range of rates and mapped 7 minutes after the addition of drug. Afterwards, the bath solution was replaced with Tyrode's with blebbistatin and the next lowest drug dose and the procedure repeated. This method was applied for all doses of each drug and, except where noted in the figures, only one drug was tested per sample. In these studies, we superfused EHS or monolayers with the following drugs: E-4031 (Tocris Bioscience), BaCl2 (Sigma-Aldrich Corp.), Chromanol 293B (Tocris Bioscience), Nifedipine (Tocris Bioscience), Bay K 8644 (Tocris Bioscience), and Cromakalim (Sigma-Aldrich Corp.).
(§4) Optical mapping data was analyzed using custom MATLAB scripts. Recordings at each pixel were de-noised using a previously described method (Little and Jones, 2010) to regulate total signal variance and convolved with a 5×5 spatial Gaussian filter. Activation times were defined as the maximum of the derivative of membrane potential (dV/dt), which was calculated as previously described (Chartrand, 2011). Histograms of local conduction velocities for each EHS were fitted to a Gaussian curve and the mean of the curve was defined as the average conduction velocity (CV). To determine longitudinal and transverse CVs, a bimodal Gaussian curve was fitted to the local CVs. Action potential durations at 30 and 80 percent repolarization (APD30 and APD80) were determined for all local traces over the recording region for each EHS and fit with Gaussian curves to determine the mean value for each EHS, as described for CV measurements. For drug studies, average APD and CV measurements for each dose were normalized by average APD and CV measurements at baseline (without the drug).

[2] = tested on: engineered heart slices (EHS) of hiPSC-CMs; experiment: Optical mapping of action potential duration and conduction velocity, EHS; details: for change in APD80 compared to baseline, d201 EHS / change in conduction velocity compared to baseline, d201 EHS: paced at 1900 ms, n=4
Experimental: as §1, §2, §3, §4

hiPSC-CM monolayers [3] = experiment: GRIDS assay (pace-capture and spontaneous activity by optical mapping), monolayers
Experimental: as §1
(§5) To test the responsiveness of EHS to ion channel modulators, an assay referred to herein as “GRIDS” (grid of responses indicating drug sensitivity) was developed that characterizes the ability of a cardiac preparation to respond to pacing when exposed to a range of drug concentrations. This assay was used to compare EHS to age-matched monolayer cultures. APs of EHS and monolayers were evaluated at each drug concentration in the absence of pacing and when subjected to electrical stimulation at PCLs ranging from 2000 ms to 500 ms. By incorporating a range of pacing rates, GRIDS manifests the distinct sensitivities of different ion currents (Ravens and Wettwer, 1998) and their rate dependencies, and provides a “fingerprint” of drug sensitivity. Several types of responses were observed: no spontaneous activity (FIG. 6A,i), spontaneously generated APs when no pacing was applied (FIG. 6A,ii), extra APs in between pacing stimuli (FIG. 6A, iii), one AP generated for each pacing stimulus—i.e., 1:1 pace-capture (FIG. 6A, iv), and failure to maintain 1:1 pace-capture (lost beats) (FIG. 6A,v).
as §2, §3
(§6) Optical mapping data was analyzed using custom MATLAB scripts. […]

[4] = tested on: engineered heart slices (EHS) of hiPSC-CMs; experiment: GRIDS assay (pace-capture and spontaneous activity by optical mapping), EHS
Experimental: as §1, §5, §2, §3, §6

monolayers of hiPSC-CMs = experiment: GRIDS analysis applied to video-based contraction data, monolayers; details: n=6
Experimental: GRIDS analysis was applied to contraction data collected from monolayers of hiPSC-CMs. Each monolayer (cultured on a plastic coverslip) was placed in a 35-mm dish filled with cell culture medium and set on the stage of a microscope (LS720, Etaluma) fitted within a cell culture incubator. Monolayers were superfused with increasing concentrations of E-4031 (FIG. 15) or isoproterenol (FIG. 16), ranging from 0 to 10 μM, and paced at decreasing cycle lengths (increasing rates), ranging from 2000 ms to 500 ms, using a field electrode. At each drug dose and paced cycle length, a 30-second video of the contracting cells was recorded at a rate of 20-30 frames per second. The cellular contraction was quantified by subtracting one reference frame of video from all other frames, summing the pixels in each frame after subtraction, plotting the summed signal over time, and detecting the peaks in the signal.

[5] = tested on: engineered heart slices (EHS) of hiPSC-CMs; experiment: Contraction measurements of EHS (change in EHS area during pacing)
Experimental: WT d24-78 EHS were placed in a 35-mm tissue culture mm dish filled with Tyrode's solution and maintained at 31±0.1° C. for the duration of the experiment. A section of each EHS was detached from the edge of the coverslip so that it could move freely. Each EHS was paced at 1 Hz, 1.5 Hz, and 2 Hz while the free region was imaged with a CCD camera. A custom MATLAB script was used to segment the image and calculate the change in EHS area over time, which was used as a measure of contraction.
Tyrode's solution was prepared by combining 1.8 mM CaCl2, 5 mM glucose, 5 mM HEPES, 1 mM MgCl2, 5.4 mM KCl, 135 mM NaCl, and 0.33 mM NaH2PO4 in ddH2O and adding NaOH to raise the pH to 7.4 (all chemicals from Sigma-Aldrich Corp.). EHS were placed in a 35-mm dish filled with Tyrode's solution and set on a stage heated to 31±0.1° C. (Warner Instruments, Hamden, Conn.). A section of each EHS was unhooked and allowed to move freely throughout the duration of the experiment. The EHS were allowed to equilibrate in Tyrode's for 5 minutes before the start of pacing with a point electrode. Each sample was paced for 1 minute at each of 3 cycle lengths (1000 ms, 666 ms, 500 ms), while the freely moving region was kept approximately vertical in the field of view and imaged at 4× magnification using a CCD camera (Swiftcam, Swift, Schertz, Tex.) at a rate of 14-17 fps with 320×256 pixel resolution. Samples also were imaged during pacing at 666 ms after the application of 1 μM isoproterenol (Sigma-Aldrich Corp.) for 2 minutes and after washout of the drug for 2 minutes. A pacing cycle length shorter than 1000 ms was applied in the presence of isoproterenol to overcome the increase in spontaneous rate in response to the drug. […] From this, the area of EHS was calculated in each image. The change in area from a fully relaxed state (reference frame, designated as 100% EHS area) was determined for each frame in the time series. […]

[6] = chromanol 293B 1 μM to 60 μM, PCL 1000 ms
[7] = chromanol 293B, all concentrations tested
[8] = BaCl2 up to 150 μM, PCL 1000 ms, concentration-dependent
[9] = additional 1 μM Bay K 8644 after 1 μM cromakalim
[10] = E-4031 50 nM to 10 μM, PCL 1500 ms, concentration-dependent

With `CCS(=O)(=O)N(C)[C@H]1c2cc(C#N)ccc2OC(C)(C)[C@@H]1O` (racemic) [chromanol 293B] the “change in APD80, monolayers” value (hiPSC-CM monolayers [1]; [6]) was “no effect”, the “change in CV, monolayers” value (hiPSC-CM monolayers [1]; [6]) was “no effect” and the “change in APD80, EHS” value [2, 6] was “no effect”. The “change in CV, EHS” value [2, 6] was “no effect”, the “pace-capture (GRIDS), monolayers” value (hiPSC-CM monolayers [3]; [7]) was “could be pace-captured at all PCLs from 2000 ms down to 500 ms” and the “fraction of monolayers exhibiting spontaneous activity when no pacing was applied” value (hiPSC-CM monolayers [3]; chromanol 293B, concentrations up to 60 μM) was “non-zero and constant at all concentrations except for 5 μM, when it was zero, and 60 μM, when all monolayers exhibited spontaneous activity”. For the same compound, the “pace-capture (GRIDS), EHS” value [4, 7] was “could be pace-captured at all PCLs from 2000 ms down to 500 ms”.
`[Ba+2].[Cl-].[Cl-]` [BaCl2] was tested, and the “change in APD80, monolayers” value (hiPSC-CM monolayers [1]; [8]) was “increased APD80”, the “change in CV, monolayers” value (hiPSC-CM monolayers [1]; BaCl2 up to 150 μM, PCL 1000 ms, did not reach statistical significance) was “decreased CV” and the “change in APD80, EHS” value [2, 8] was “increased APD80”. For the same compound, the “change in CV, EHS” value ([2]; BaCl2 up to 150 μM, PCL 1000 ms, statistically significant) was “decreased CV”, the “pace-capture (GRIDS), monolayers” value (hiPSC-CM monolayers [3]; 500 μM BaCl2) was “could be partially pace-captured only at CLs of 1000 ms and less” and the “spontaneous beating rate, monolayers” value (hiPSC-CM monolayers [3]; 500 μM BaCl2) was “up to 1 Hz”. For the same compound, the “pace-capture (GRIDS), monolayers” value (hiPSC-CM monolayers [3]; 1 mM BaCl2) was “only a small fraction could be partially pace-captured at a CL of 500 ms”, the “spontaneous beating rate, nearly all monolayers” value (hiPSC-CM monolayers [3]; 1 mM BaCl2) was over 2 Hz and the “spontaneous rate, monolayers” value (hiPSC-CM monolayers [3]; BaCl2, no pacing, effect greater in monolayers than in EHS) was “increased in a concentration-dependent manner”. For the same compound, the “pace-capture (GRIDS), EHS” value ([4]; 1 mM BaCl2, 500 ms PCL) was “all of the EHS tested lost capture”, the “sensitivity (GRIDS), EHS compared with monolayers” value ([4]; BaCl2) was “less sensitive to BaCl2 than monolayers” and the “spontaneous rate, EHS” value ([4]; BaCl2, no pacing) was “increased in a concentration-dependent manner”. The “pace-capture (GRIDS), EHS” value ([4]; all concentrations of BaCl2) was “could be overdrive paced at 700 ms and 1000 ms PCL for all concentrations”.
`COC(=O)C1=C(C)NC(C)=C([N+](=O)[O-])C1c1ccccc1C(F)(F)F` (centres unmarked) [Bay K 8644] was tested, and the “change in CV, EHS” value ([2]; Bay K 8644 0.3 μM to 100 μM, concentration-dependent, n=3) was “decreased CV”, the “change in APD, EHS” value ([2]; Bay K 8644 0.3 μM to 100 μM, paced at 700 ms, concentration-dependent, n=3) was “increased APD” and the “maximum capture rate, EHS” value ([2]; Bay K 8644, n=3) was “decreased the maximum capture rate”. The “change in APD80 compared to baseline, d201 EHS” value [2, 9] was “decreased APD80” and the “change in conduction velocity compared to baseline, d201 EHS” value [2, 9] was “slowed conduction velocity”.
With `Cc1cccc(CCN2CCC(C(=O)c3ccc(NS(C)(=O)=O)cc3)CC2)n1` [E-4031] the “pace-capture from contraction video (GRIDS), monolayers” value (monolayers of hiPSC-CMs; E-4031 0 to 10 μM, PCL 2000 ms to 500 ms, more pronounced at higher doses) was “began to lose capture as the pacing rate was increased”, the “change in APD80, monolayers” value (hiPSC-CM monolayers [1]; [10]) was “prolonged APD80” and the “change in CV, monolayers” value (hiPSC-CM monolayers [1]; [10]) was “slowed CV”. For the same compound, the “change in APD80, EHS” value [2, 10] was “prolonged APD80”, the “change in CV, EHS” value [2, 10] was “slowed CV” and the “loss of capture during pacing (GRIDS), monolayers” value (hiPSC-CM monolayers [3]; E-4031 greater than 50 nM (tested 1 nM to 10 μM), increasingly shorter PCLs) was “a greater fraction of monolayers than EHS lost capture”. The “sensitivity of pace-capture (GRIDS), EHS compared with monolayers” value ([4]; E-4031 greater than 50 nM (tested 1 nM to 10 μM), rapid pacing) was “lower sensitivity of EHS to E-4031”.
In the case of `CC1(C)Oc2ccc(C#N)cc2C(N2CCCC2=O)C1O` (centres unmarked) [cromakalim], the “change in APD80 compared to baseline, d201 EHS” value ([2]; 1 μM cromakalim) is reported as “decreased APD80” and the “change in conduction velocity compared to baseline, d201 EHS” value ([2]; 1 μM cromakalim) is reported as “slowed conduction velocity”.
For `CC(C)NCC(O)c1ccc(O)c(O)c1` (centres unmarked) [isoproterenol], the “spontaneous rate from contraction video (GRIDS), monolayers” value (monolayers of hiPSC-CMs; isoproterenol 0 to 10 μM, no pacing or 2000 ms pacing) was “increased the spontaneous rate of the monolayers in a dose-dependent manner”, the “area change during contraction relative to baseline” value ([5]; 1 μM isoproterenol, PCL 666 ms (1.5 Hz), n=8) was 1.5±0.6 fold and the inotropic response ([5]; EHS) was “positive inotropic response”. The “area change during contraction relative to baseline after washout of the drug” value ([5]; after washout of 1 μM isoproterenol, PCL 666 ms, n=8) was 1.1±0.4 times the baseline value.
